ChEMBL document CHEMBL1127196, “The use of synthetic peptide combinatorial libraries for the determination of peptide ligands in radio-receptor assays: Opioid peptides” (Bioorg Med Chem Lett, 1993)

molecular target: Mu-type opioid receptor (Rattus norvegicus, UniProt P33535); assay: Concentration required for 50% inhibition of [3H]DAGO binding to mu opioid receptor in crude rat brain homogenates; format: tissue-based
Sequence (P33535 whole entry): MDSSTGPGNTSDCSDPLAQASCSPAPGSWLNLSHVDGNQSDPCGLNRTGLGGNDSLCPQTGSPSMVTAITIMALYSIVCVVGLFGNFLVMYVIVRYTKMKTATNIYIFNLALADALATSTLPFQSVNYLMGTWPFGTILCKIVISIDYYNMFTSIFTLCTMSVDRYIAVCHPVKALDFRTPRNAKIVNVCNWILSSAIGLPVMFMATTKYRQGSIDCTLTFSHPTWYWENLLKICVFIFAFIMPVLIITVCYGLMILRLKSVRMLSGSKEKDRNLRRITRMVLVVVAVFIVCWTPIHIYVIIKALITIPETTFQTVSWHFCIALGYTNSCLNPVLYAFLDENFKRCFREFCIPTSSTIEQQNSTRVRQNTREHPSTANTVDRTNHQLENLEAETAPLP

Question: With H-YGGFMT-NH2 as the compound, how does the IC50 read?
Answer: Its IC50 is 41 nM.

Question: With H-YGGFLV-NH2 as the compound, how does the IC50 read?
Answer: Its IC50 is 189 nM.

Question: Which IC50 does the source give for H-YGGFMN-NH2 here?
Answer: The IC50 was 28 nM.

Question: H-YGGFMS-NH2 was tested. Which IC50 did it give?
Answer: The IC50 was 34 nM.

Question: Which IC50 does the source give for H-YGGFMH-NH2 here?
Answer: The IC50 was 37 nM.

Question: How did the IC50 turn out when H-YGGFLM-NH2 was run?
Answer: The IC50 was 112 nM.

Question: How did the IC50 turn out when H-YGGFLT-NH2 was run?
Answer: The IC50 was 65 nM.

Question: Which IC50 does the source give for H-YGGFMR-NH2 here?
Answer: The IC50 was 46 nM.

Question: With H-YGGFMG-NH2 as the compound, how does the IC50 read?
Answer: The IC50 was 35 nM.

Question: How did the IC50 turn out when H-YGGFMQ-NH2 was run?
Answer: Its IC50 is 40 nM.

Question: H-YGGFMK-NH2 was tested. Which IC50 did it give?
Answer: Its IC50 is 41 nM.

Question: Which IC50 does the source give for H-YGGFLS-NH2 here?
Answer: Its IC50 is 65 nM.

Question: With H-YGGFLR-NH2 as the compound, how does the IC50 read?
Answer: Its IC50 is 158 nM.

Question: H-YGGFLY-NH2 was tested. Which IC50 did it give?
Answer: The IC50 was 77 nM.

Question: Which IC50 does the source give for H-YGGFLH-NH2 here?
Answer: The IC50 was 141 nM.

Question: For H-YGGFLD-NH2, which IC50 is on record?
Answer: The IC50 was 214 nM.

Question: With H-YGGFLF-NH2 as the compound, how does the IC50 read?
Answer: The IC50 was 381 nM.

Question: H-YGGFME-NH2 was tested. Which IC50 did it give?
Answer: The IC50 was 204 nM.

Question: H-YGGFLE-NH2 was tested. Which IC50 did it give?
Answer: Its IC50 is 315 nM.

Question: For `CSCC[C@H](NC(=O)[C@H](Cc1ccccc1)NC(O)CNC(=O)CNC(=O)[C@@H](N)Cc1ccc(O)cc1)C(N)=O` (some centres not stated), which IC50 is on record?
Answer: Its IC50 is 34 nM.

Question: How did the IC50 turn out when H-YGGFLQ-NH2 was run?
Answer: The IC50 was 75 nM.

Question: With H-YGGFLL-NH2 as the compound, how does the IC50 read?
Answer: Its IC50 is 98 nM.

Question: For H-YGGFLA-NH2, which IC50 is on record?
Answer: Its IC50 is 60 nM.

Question: H-YGGFMI-NH2 was tested. Which IC50 did it give?
Answer: Its IC50 is 80 nM.

Question: For H-YGGFLN-NH2, which IC50 is on record?
Answer: Its IC50 is 78 nM.

Question: For `CSCC[C@H](NC(=O)[C@H](Cc1ccccc1)N(N)C(=O)CNC(=O)CN(N)C(=O)[C@H](Cc1ccc(ON)cc1)NN)C(=O)N[C@H](C(N)=O)C(C)C`, which IC50 is on record?
Answer: Its IC50 is 107 nM.

Question: With H-YGGFMP-NH2 as the compound, how does the IC50 read?
Answer: The IC50 was 57 nM.

Question: How did the IC50 turn out when H-YGGFLK-NH2 was run?
Answer: Its IC50 is 201 nM.

Question: How did the IC50 turn out when H-YGGFLI-NH2 was run?
Answer: Its IC50 is 168 nM.

Question: H-YGGFML-NH2 was tested. Which IC50 did it give?
Answer: Its IC50 is 35 nM.

Question: For H-YGGFLP-NH2, which IC50 is on record?
Answer: The IC50 was 108 nM.

Question: H-YGGFMY-NH2 was tested. Which IC50 did it give?
Answer: Its IC50 is 39 nM.

Question: How did the IC50 turn out when H-YGGFMF-NH2 was run?
Answer: The IC50 was 223 nM.

Question: H-YGGFMM-NH2 was tested. Which IC50 did it give?
Answer: The IC50 was 30 nM.

Question: H-YGGFMD-NH2 was tested. Which IC50 did it give?
Answer: Its IC50 is 167 nM.

Question: For H-YGGFLG-NH2, which IC50 is on record?
Answer: Its IC50 is 59 nM.

Question: With H-YGGFMA-NH2 as the compound, how does the IC50 read?
Answer: The IC50 was 28 nM.
